{"source": "patent US11472844B2", "about": "“Peptidomimetics, method of synthesis and uses thereof” (priority 2017, dated 2022)", "key": {"[1]": {"test_system": "neutrophils recruited to guinea pig colonic mucosa infected with Shigella flexneri", "assay": "Guinea pig model of shigellosis, staining of fixed colon sections", "protocol": "Guinea pig. The experimental protocol was approved by the french Ethic Committee Paris (n° 20140069, 2014). Young guinea pigs (Hartley, <150 g, Charles River) were anaesthetized and infected intrarectally with 10^9 CFU exponentially grown Shigella flexneri 5a (M90T) pGFP as previously described (Shim et al. 2007) (Monceaux et al. 2016). Infection occurred during 8 hours before animals were sacrificed and infected colons collected and fixed in 4% Paraformaldehyde (PFA) for two hours. For immunohistochemical staining, infected guinea pig colon samples were washed in PBS and incubated at 4° C. in PBS containing 16% sucrose for 4 hours, followed by incubation in PBS with 30% sucrose overnight. Samples were frozen in OCT (VWR 361603E) on dry ice. Frozen blocks were stored at −80 until sectioning. 10 to 30 μm sections were obtained using a cryostat CM-3050S (Leica). Tissue slices were labeled in PBS+0.1% saponin (Sigma-Aldrich) with MUB40-Cy5 or MUB40-Dylight (1 μg/ml) to localize recruited neutrophils. Slides were washed three time in PBS+0.1% saponin, three times in PBS, and three times in deionized H2O and mounted with prolong gold^tm mounting media."}, "[2]": {"test_system": "colonic mucus layer and infiltrated neutrophils", "assay": "Human colonic explant infected with Shigella flexneri, two-photon microscopy", "details": "1 μg/mL, after fixation and permeabilization", "from_the_text": "Ex vivo infection of human colonic tissue. Human colon explants were infected with S. flexneri 5a (M90T) pGFP, as described in (Nothelfer et al. 2014) and adapted from (Coron et al. 2009). Briefly, colonic tissues were cut into ˜5 cm^2 segments and pinned flat, with the submucosa facing down, onto a 4% agarose layer in tissue culture Petri dishes containing DMEM/F12 culture medium (Invitrogen) supplemented with 10% FBS, glutamine, and 2.1 g/L NaHCO3(Sigma-Aldrich). S. flexneri (M90T) 5a pGFP was added at ˜2×10^8 bacteria per cm^2 of tissue. Bacteria were allowed to settle for 15 min at room temperature before incubation at 37° C., 5% CO2 for 6 h on a slowly rocking tray. Tissue was fixed by overnight incubation with 4% PFA (Euromedex) and 0.1 M Hepes (Gibco) in PBS. For whole-mount staining, tissues were fixed on a 40×11-mm tissue culture dish (TPP) with Histoacryl tissue glue (Braun). To obtain 150-μm-thick sections, the tissue was embedded in low-melting agarose according to (Snippert et al. 2011) and cut with a vibratome (VT1000E; Leica).\nTwo-photons microscopy. […] MUB40-Cy5 was detected using multiphoton excitation (MPE, magenta), Acquisitions were performed with Zen 2008 SP 1.1 software acquisition package developed by ZEISS. […]"}, "human colonic mucus": {"test_system": "human colonic mucus", "assay": "Fluorescent labelling of human colonic mucus layer", "type": "binding", "details": "1 μg/mL; listed as MUB40#1-Cy5", "protocol": "Colon explant surgical collection. In summary, human colon segments (ascending, descending, and sigmoid colon) were obtained from fully informed patients undergoing surgery for colon carcinoma and were analyzed anonymously. Patient written consent was obtained, according to the French bioethics law. None of the patients had undergone radiotherapy or chemotherapy. According to the pathologist's examination rules for the longitudinally bisected colon, a healthy segment of tissue, which was distant from the tumor region and devoid of metastatic cells, was removed. Tissues were processed according to the French Government guidelines for research on human tissues and the French Bioethics Act with the authorization no RBM 2009-50.\nFixation and staining procedures. For microscopy studies, purified or cultured cells and polymerized lactoferrin were resuspended onto 24-well plates containing 12 mm coverslips in RMPI 1640+10 mM Hepes (when cultured in the autologous plasma) and centrifuged at 300×g for 10 min. Culture media were removed and cells were fixed in 4% Paraformaldehyde (PFA) for two hours. Fixed cells were washed three times in PBS+0.1% saponin (Sigma-Aldrich), prior immunolabeling with primary antibodies in the same buffer for 1 hour (Triton 0.1% can alternatively be used for cell permeabilization). After three additional washes in PBS+0.1% saponin, secondary antibodies and fluorescent markers were incubated for one hour. […]\nAntibodies, fluorescent markers. For immunofluorescence assay, lactoferrin was detected with a mouse anti-lactoferrin primary monoclonal antibody (Hycult biotech, clone 265-1K1, 1:50 dilution) and an anti-mouse-FITC conjugated secondary antibody (1:1000). Nuclei were detected with DAPI (Life Technologies), Lyophilized MUB40 peptides (MUB40#1 (SEQ ID NO: 3)-Cy5, MUB40#2 (SEQ ID NO: 4)-Cy5, MUB40#3 (SEQ ID NO: 5)-Cy5, MUB40#4 (SEQ ID NO: 6)-Cy5, MUB40#1 (SEQ ID NO: 3)-Dylight, RI-MUB40 (SEQ ID NO: 2)-Cy5, and RI-MUB40 (SEQ ID NO: 2)-Biotin) were solubilized in a phosphate buffer pH8 at a 1 mg/mL concentration and used at a 1:1000 dilution. […]"}, "[3]": {"test_system": "human neutrophil granules", "assay": "Fluorescent labelling of fixed purified human neutrophils", "type": "cell-based", "details": "1 μg/mL", "protocol": "Fixation and staining procedures. For microscopy studies, purified or cultured cells and polymerized lactoferrin were resuspended onto 24-well plates containing 12 mm coverslips in RMPI 1640+10 mM Hepes (when cultured in the autologous plasma) and centrifuged at 300×g for 10 min. Culture media were removed and cells were fixed in 4% Paraformaldehyde (PFA) for two hours. Fixed cells were washed three times in PBS+0.1% saponin (Sigma-Aldrich), prior immunolabeling with primary antibodies in the same buffer for 1 hour (Triton 0.1% can alternatively be used for cell permeabilization). After three additional washes in PBS+0.1% saponin, secondary antibodies and fluorescent markers were incubated for one hour. Coverslips were washed three time in PBS+0.1% saponin, three times in PBS, and three times in deionized H2O and mounted with prolong gold^tm mounting media.\nAntibodies, fluorescent markers. For immunofluorescence assay, lactoferrin was detected with a mouse anti-lactoferrin primary monoclonal antibody (Hycult biotech, clone 265-1K1, 1:50 dilution) and an anti-mouse-FITC conjugated secondary antibody (1:1000). Nuclei were detected with DAPI (Life Technologies), Lyophilized MUB40 peptides (MUB40#1 (SEQ ID NO: 3)-Cy5, MUB40#2 (SEQ ID NO: 4)-Cy5, MUB40#3 (SEQ ID NO: 5)-Cy5, MUB40#4 (SEQ ID NO: 6)-Cy5, MUB40#1 (SEQ ID NO: 3)-Dylight, RI-MUB40 (SEQ ID NO: 2)-Cy5, and RI-MUB40 (SEQ ID NO: 2)-Biotin) were solubilized in a phosphate buffer pH8 at a 1 mg/mL concentration and used at a 1:1000 dilution. For PBMC staining CD19-APC (B lymphocytes), CD3-APC (T lymphocytes), and CD14-PercP (monocytes, macrophages) (BD Bioscience) were used at a 1:1000 dilution together with Dapi (1:1000) and MUB40-Cy5 (1 mg/mL). Actin was stained with Phalloidin-Rhodamine red X (RRX) (Jackson Immunoresearch Antibodies) used at a 1:1000 final dilution.\nPolymorphonuclear neutrophils purification. Human polymorphonuclear neutrophils were purified as described previously (Monceaux et al. 2016). Briefly, plasma was removed by centrifugation (450×g, 15 min); blood cells were resuspended in 0.9% NaCl solution supplemented with 0.72% Dextran. After red blood cells sedimentation, white blood cells were pelleted and further separated on a two layer Percoll (GE Healthcare) (51%−42%) by centrifugation (at 240×g, 20 min). PBMC (top layer) were isolated from polymorphonuclear neutrophils (bottom layer). Red blood cells were removed from the latter fraction using CD235a (glycophorin) microbeads (negative selection) (Miltenyi Biotec). PBMCs and polymorphonuclear neutrophils were resuspended in the autologous plasma. Guinea pig and mouse polymorphonuclear neutrophils were purified with the same procedure.\nConfocal microscopy. […]"}}, "note": "“Also recorded” adds a separate entry of the source. *: point of attachment. X1 = CC[N+]1=C(/C=C/C=C/C=C2N(CCCCCC(=O)NCCN3C(=O)CC(*)C3=O)c3ccc(S(=O)(=O)O)cc3C2(C)C)C(C)(C)c2cc(S(=O)(=O)[O-])ccc21", "data": [{"substance": "Ac-C(X1)TAEGIKKFEGDGYELFKDNFPAGEKFDNDDTNDQFYTVIF-NH2 [Cy5-MUB40#1]", "values": [{"measurement": "detection of neutrophil lactoferrin secretion", "setting": "[1]; fixed guinea pig colonic mucosa infected by Shigella flexneri, 1 μg/mL", "value": "successfully revealed"}, {"measurement": "labelling of recruited neutrophils", "setting": "[1]; guinea pig colon, Shigella flexneri, 1 μg/ml", "value": "specifically labeled"}, {"measurement": "labelling of colonic mucus layer and infiltrated neutrophils", "setting": "[2]", "value": "labelled"}, {"measurement": "labelling of / binding to human colonic mucus", "setting": "human colonic mucus", "value": "labelled; also recorded: conserved the ability to bind to and fluorescently label the human colonic mucus"}, {"measurement": "labelling of human neutrophil granules", "setting": "[3]; listed as MUB40#1-Cy5", "value": "granular staining"}, {"measurement": "labelling of human neutrophil granules", "setting": "[3]; listed as MUB40-Cy5", "value": "specifically labeled"}]}]}
